Measured values reported in ChEMBL document CHEMBL4622852, “Design and synthesis of novel proline based factor XIa selective inhibitors as leads for potential new anticoagulants” (Bioorg Med Chem Lett, 2020).

Legend:
[1] = target: Coagulation factor IX (Homo sapiens, UniProt P00740); experiment: Inhibition of factor 9a (unknown origin)
[2] = target: Prothrombin (Homo sapiens, UniProt P00734); experiment: Inhibition of thrombin (unknown origin)
[3] = target: T1, Coagulation factor VII (Homo sapiens, UniProt P08709); experiment: Inhibition of factor 7a (unknown origin)
T1 sequence (P08709 whole entry): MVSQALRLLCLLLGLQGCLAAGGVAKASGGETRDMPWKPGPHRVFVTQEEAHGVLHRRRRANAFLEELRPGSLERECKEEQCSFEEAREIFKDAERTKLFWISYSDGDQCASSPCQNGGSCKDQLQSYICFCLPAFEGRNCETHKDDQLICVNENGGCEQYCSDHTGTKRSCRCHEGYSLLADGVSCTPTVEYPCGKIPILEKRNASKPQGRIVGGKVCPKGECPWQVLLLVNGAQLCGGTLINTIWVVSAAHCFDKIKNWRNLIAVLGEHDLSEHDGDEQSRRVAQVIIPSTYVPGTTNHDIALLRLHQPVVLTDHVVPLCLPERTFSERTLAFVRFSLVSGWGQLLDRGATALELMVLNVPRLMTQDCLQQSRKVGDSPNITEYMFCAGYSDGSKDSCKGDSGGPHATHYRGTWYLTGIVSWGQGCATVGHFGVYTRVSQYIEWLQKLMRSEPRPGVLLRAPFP

[4] = target: Coagulation factor X (Homo sapiens, UniProt P00742); experiment: Inhibition of factor 10a (unknown origin)
[5] = target: T2, Coagulation factor XII (Homo sapiens, UniProt P00748); experiment: Inhibition of factor 12a (unknown origin)
T2 sequence (P00748 whole entry): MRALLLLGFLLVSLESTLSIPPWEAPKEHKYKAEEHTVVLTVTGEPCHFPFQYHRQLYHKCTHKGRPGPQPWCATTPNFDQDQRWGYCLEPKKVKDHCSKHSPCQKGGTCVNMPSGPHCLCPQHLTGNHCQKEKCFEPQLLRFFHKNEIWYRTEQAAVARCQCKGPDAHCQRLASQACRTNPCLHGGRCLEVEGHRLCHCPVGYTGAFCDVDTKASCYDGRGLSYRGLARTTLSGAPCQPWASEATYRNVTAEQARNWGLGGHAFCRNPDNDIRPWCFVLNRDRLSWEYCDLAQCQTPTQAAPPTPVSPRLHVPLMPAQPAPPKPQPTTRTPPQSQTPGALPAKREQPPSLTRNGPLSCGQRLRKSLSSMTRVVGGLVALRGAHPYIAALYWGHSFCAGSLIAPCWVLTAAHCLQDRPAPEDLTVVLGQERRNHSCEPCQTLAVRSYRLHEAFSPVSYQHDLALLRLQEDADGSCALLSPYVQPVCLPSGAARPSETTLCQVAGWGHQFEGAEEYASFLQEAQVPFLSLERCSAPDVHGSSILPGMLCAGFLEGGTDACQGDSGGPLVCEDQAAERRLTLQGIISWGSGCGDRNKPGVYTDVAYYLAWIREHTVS

[6] = target: Trypsin (Homo sapiens, UniProt P07477+P07478+P35030); experiment: Inhibition of trypsin (unknown origin); type: protein assay
[7] = target: T3, Coagulation factor XI (Homo sapiens, UniProt P03951); experiment: Inhibition of factor 11a (unknown origin)
[8] = target: T3, Coagulation factor XI; experiment: Inhibition of factor 11a (unknown origin) at 10 uM relative to control

Coagulation factor IX, sequence (P00740 47-191 limits assumed): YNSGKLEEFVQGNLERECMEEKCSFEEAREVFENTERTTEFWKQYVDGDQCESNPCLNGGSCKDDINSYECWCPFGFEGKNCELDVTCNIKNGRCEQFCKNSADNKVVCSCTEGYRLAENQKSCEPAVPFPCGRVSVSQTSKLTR
Coagulation factor IX, sequence (P00740 227-461 limits assumed): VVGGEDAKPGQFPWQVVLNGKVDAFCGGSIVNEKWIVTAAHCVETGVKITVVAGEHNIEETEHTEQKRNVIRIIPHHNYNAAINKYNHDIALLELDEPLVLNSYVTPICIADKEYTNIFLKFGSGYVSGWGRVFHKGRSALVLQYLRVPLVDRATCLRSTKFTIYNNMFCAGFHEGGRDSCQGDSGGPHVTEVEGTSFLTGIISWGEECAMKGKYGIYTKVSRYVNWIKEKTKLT
T3 sequence (P03951 19-387 limits assumed): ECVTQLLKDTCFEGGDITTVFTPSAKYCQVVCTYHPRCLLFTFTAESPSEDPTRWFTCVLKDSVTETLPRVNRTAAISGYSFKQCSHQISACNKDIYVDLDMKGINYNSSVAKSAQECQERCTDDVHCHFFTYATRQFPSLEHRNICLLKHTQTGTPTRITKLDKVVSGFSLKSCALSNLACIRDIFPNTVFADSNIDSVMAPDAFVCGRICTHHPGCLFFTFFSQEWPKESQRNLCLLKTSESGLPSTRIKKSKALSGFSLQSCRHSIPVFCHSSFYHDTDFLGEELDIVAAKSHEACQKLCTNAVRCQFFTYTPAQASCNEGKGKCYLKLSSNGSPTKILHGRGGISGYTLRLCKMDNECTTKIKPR
T3 sequence (P03951 388-625 limits assumed): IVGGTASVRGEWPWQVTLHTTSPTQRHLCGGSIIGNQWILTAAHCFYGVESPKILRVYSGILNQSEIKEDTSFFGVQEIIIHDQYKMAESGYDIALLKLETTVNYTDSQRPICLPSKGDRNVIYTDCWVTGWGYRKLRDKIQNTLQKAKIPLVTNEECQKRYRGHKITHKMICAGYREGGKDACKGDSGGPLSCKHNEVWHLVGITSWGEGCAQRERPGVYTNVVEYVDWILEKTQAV
Coagulation factor X, sequence (P00742 41-179 limits assumed): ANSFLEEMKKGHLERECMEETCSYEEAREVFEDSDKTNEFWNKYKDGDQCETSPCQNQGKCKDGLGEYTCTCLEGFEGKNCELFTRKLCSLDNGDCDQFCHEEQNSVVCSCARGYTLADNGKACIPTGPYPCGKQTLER
Coagulation factor X, sequence (P00742 235-488 limits assumed): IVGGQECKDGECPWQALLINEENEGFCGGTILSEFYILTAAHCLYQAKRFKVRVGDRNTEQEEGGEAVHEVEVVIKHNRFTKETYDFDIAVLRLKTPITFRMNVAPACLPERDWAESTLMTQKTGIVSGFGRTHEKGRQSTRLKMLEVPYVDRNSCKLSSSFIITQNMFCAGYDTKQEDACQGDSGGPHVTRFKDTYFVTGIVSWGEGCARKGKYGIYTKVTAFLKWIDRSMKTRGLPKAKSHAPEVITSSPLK

| SMILES | IC50 [1] [nM] | IC50 [2] [nM] | IC50 [3] [nM] | IC50 [4] [nM] | IC50 [5] [nM] | IC50 [6] [nM] | IC50 [7] [nM] | inhibition [8] [%] |
| --- | --- | --- | --- | --- | --- | --- | --- | --- |
| CC[C@@H](C)[C@@H](NS(=O)(=O)Cc1ccc(C(F)(F)F)cc1)C(=O)N1C[C@@](C)(O)C[C@H]1C(=O)NCc1ccc2c(N)nccc2c1 | > 30000 | 521 | 2780 | 328 | > 30000 | 2912 | 46 |  |
| CC[C@@H](C)[C@@H](NC1CCCCC1)C(=O)N1C[C@@](C)(O)C[C@H]1C(=O)NCc1ccc2c(N)nccc2c1 | 7830 | 218 | 461 | 49 | 241 | 547 | 12 |  |
| CC(C)C[C@@H](NC1CCCCC1)C(=O)N1CCCC[C@H]1C(=O)NCc1ccc2c(N)nccc2c1 |  | 4 |  |  |  |  | 138 |  |
| CC[C@@H](C)[C@@H](NC1CCCCC1)C(=O)N1CCC[C@H]1C(=O)NCc1ccc2c(N)nccc2c1 |  |  |  |  |  |  | 16 |  |
| CC[C@@H](C)[C@@H](NC1CCCCC1)C(=O)N1C[C@@](C)(C#N)C[C@H]1C(=O)NCc1ccc2c(N)nccc2c1 | > 10000 | 289 | 1130 | 2740 | 7290 | 3371 | 28 |  |
| O=C(NCc1cc(Cl)ccc1-n1cnnn1)[C@@H]1CCCN1C(=O)[C@@H](CC1CCCCC1)NC1CCCCC1 |  |  |  |  |  |  | > 30000 |  |
| CC[C@@H](C)[C@@H](NC(C)C(F)F)C(=O)N1C[C@@](C)(O)C[C@H]1C(=O)NCc1ccc2c(N)nccc2c1 (stereo partly specified) | > 10000 | 3630 | 2760 | 798 | > 10000 | 4034 | 77 |  |
| CC(C)[C@@H](NC1CCCCC1)C(=O)N1CCC[C@H]1C(=O)NCc1ccc2c(N)nccc2c1 |  | 7 |  |  |  |  | 234 |  |
| CC(C)C[C@@H](NC1CCC(C(F)(F)F)CC1)C(=O)N1CCC[C@H]1C(=O)NCc1ccc2c(N)nccc2c1 (stereo partly specified) |  | 174 |  |  |  |  | 490 |  |
| CC(C)C[C@@H](NC1CCCCC1)C(=O)N1C[C@@H](F)C[C@H]1C(=O)NCc1ccc2c(N)nccc2c1 |  | > 5000 |  |  |  |  | 437 |  |
| CC(C)C[C@@H](NC1CCCCC1)C(=O)N1CC[C@H]1C(=O)NCc1ccc2c(N)nccc2c1 |  | 3 |  |  |  |  | 1100 |  |
| CC(C)C[C@@H](NC1CCCCC1)C(=O)N1C[C@@](C)(O)C[C@H]1C(=O)NCc1ccc2c(N)nccc2c1 |  |  |  |  |  |  | 49 |  |
| CC[C@@H](C)[C@@H](NC1CCC(F)(F)CC1)C(=O)N1C[C@](O)(CC)C[C@H]1C(=O)NCc1ccc2c(N)nccc2c1 | > 30000 | 1190 | 3800 | 652 | > 10000 | 2701 | 88 |  |
| CC(C)C[C@@H](NC1CCCCC1)C(=O)N1C[C@@H](O)C[C@H]1C(=O)NCc1ccc2c(N)nccc2c1 |  | 1000 |  |  |  |  | 100 |  |
| CC(C)C[C@@H](NC1CCCCC1)C(=O)N1C[C@@H](C(F)(F)F)C[C@H]1C(=O)NCc1ccc2c(N)nccc2c1 |  | > 5000 |  |  |  |  | 76 |  |
| CC(C)C[C@@H](NC1CCC(F)(F)CC1)C(=O)N1CCC[C@H]1C(=O)NCc1ccc2c(N)nccc2c1 |  | 120 |  |  |  |  | 417 |  |
| CO[C@H]1C[C@@H](C(=O)NCc2ccc3c(N)nccc3c2)N(C(=O)[C@@H](CC(C)C)NC2CCCCC2)C1 |  | > 5000 |  |  |  |  | 263 |  |
| CC(C)C[C@@H](NC1CCCCC1)C(=O)N1CCC[C@H]1C(=O)NCc1ccc2c(N)nccc2c1 |  | 5 |  |  |  |  | 60 |  |
| Nc1nccc2cc(CNC(=O)[C@@H]3CCCN3C(=O)[C@H](NC3CCCCC3)C3CCCCC3)ccc12 |  | 6 |  |  |  |  | 91 |  |

| SMILES | IC50 [1] [nM] | IC50 [2] [nM] | IC50 [3] [nM] | IC50 [4] [nM] | IC50 [5] [nM] | IC50 [6] [nM] | IC50 [7] [nM] | inhibition [8] [%] |
| --- | --- | --- | --- | --- | --- | --- | --- | --- |
| CCC[C@@H](NC1CCCCC1)C(=O)N1CCC[C@H]1C(=O)NCc1ccc2c(N)nccc2c1 |  | 9 |  |  |  |  | 171 |  |
| CC(C)C[C@@H](NC1CCCC1)C(=O)N1CCC[C@H]1C(=O)NCc1ccc2c(N)nccc2c1 |  | 38 |  |  |  |  | 1380 |  |
| CC[C@H](C)[C@@H](NC1CCCCC1)C(=O)N1CCC[C@H]1C(=O)NCc1ccc2c(N)nccc2c1 |  |  |  |  |  |  | 347 |  |
| CC[C@@H](C)[C@@H](NC1CCCCC1)C(=O)N1C[C@@H](O)C[C@H]1C(=O)NCc1ccc2c(N)nccc2c1 | 8330 | 309 | 993 | 136 | 341 | 824 | 21 |  |
| CC(C)C[C@@H](NC1CCOCC1)C(=O)N1CCC[C@H]1C(=O)NCc1ccc2c(N)nccc2c1 |  | 281 |  |  |  |  | 1350 |  |
| CC(C)C[C@@H](NC1CCCCC1)C(=O)N1C[C@@H](C)C[C@H]1C(=O)NCc1ccc2c(N)nccc2c1 |  |  |  |  |  |  | 2340 |  |
| CC(C)C[C@@H](NC(C)C(F)F)C(=O)N1CCC[C@H]1C(=O)NCc1ccc2c(N)nccc2c1 (stereo partly specified) |  | 95 |  |  |  |  | 339 |  |
| Nc1nccc2cc(CNC(=O)[C@@H]3CCCN3C(=O)[C@H](NC3CCCCC3)C3CCOCC3)ccc12 |  | 2 |  |  |  |  | 224 |  |
| Nc1ncnc2cc(CNC(=O)[C@@H]3CCCN3C(=O)[C@@H](CC3CCCCC3)NC3CCCCC3)ccc12 |  |  |  |  |  |  |  | 10 |
| CC[C@@H](C)[C@@H](NS(=O)(=O)Cc1ccc(Cl)cc1)C(=O)N1C[C@@](C)(C#N)C[C@H]1C(=O)NCc1ccc2c(N)nccc2c1 | > 30000 | 43 | 285 | 829 | > 20000 | 2526 | 10 |  |
| Nc1nccc2cc(CNC(=O)[C@@H]3CCCN3C(=O)[C@@H](CC3CC3)NC3CCCCC3)ccc12 |  | 6 |  |  |  |  | 98 |  |
| CC[C@@H](C)[C@@H](NC1CCCCC1)C(=O)N1C[C@](O)(CC)C[C@H]1C(=O)NCc1ccc2c(N)nccc2c1 | > 10000 | 92 | 646 | 93 | 426 | 410 | 22 |  |
| Nc1ncnc2oc(CNC(=O)[C@@H]3CCCN3C(=O)[C@@H](CC3CCCCC3)NC3CCCCC3)cc12 |  |  |  |  |  |  |  | 8 |
| CCS(=O)(=O)N[C@H](CC(C)C)C(=O)N1CCC[C@H]1C(=O)NCc1ccc2c(N)nccc2c1 |  | 24 |  |  |  |  | 794 |  |
| Cc1cc2cc(CNC(=O)[C@@H]3CCCN3C(=O)[C@@H](CC3CCCCC3)NC3CCCCC3)ccc2c(N)n1 |  |  |  |  |  |  |  | 61 |
| CC[C@@H](C)[C@@H](NS(=O)(=O)Cc1ccc(Cl)cc1)C(=O)N1C[C@@](C)(O)C[C@H]1C(=O)NCc1ccc2c(N)nccc2c1 | > 20000 | 370 | 2020 | 78 | > 30000 | 2020 | 15 |  |
| CC(C)C[C@@H](NC1CCC1)C(=O)N1CCC[C@H]1C(=O)NCc1ccc2c(N)nccc2c1 |  | 44 |  |  |  |  | 3310 |  |
| CC(C)CN[C@H](CC(C)C)C(=O)N1CCC[C@H]1C(=O)NCc1ccc2c(N)nccc2c1 |  | 37 |  |  |  |  | 2690 |  |
